Here are results for eleven compounds from ChEMBL document CHEMBL1201862, “PubChem BioAssay data set” (2004).

Common to all, as to assay: DTP human tumour cell line panel, 48 h
For assay [1], the system named is OVCAR-5.
For assay [2], the system named is SNB-75.
The subject of assay [3] is RXF 393.
The subject of assay [4] is SR.
Assay [5] concerns T47D.
Assay [6] concerns ACHN.
Assay [7] has as its system CCRF-CEM.
Assay [8] deals with UACC-257.
The test system of assay [9] is SK-MEL-28.
In assay [10] the test system is SNB-19.
Assay [11] deals with 786-0.
Assay [12] deals with HL-60.
Assay [13] deals with KM12.
The subject of assay [14] is HCC 2998.
In assay [15] the test system is BT-549.
For assay [16], the system named is A549.
The subject of assay [17] is MDA-MB-435.
Assay [18] deals with SF-539.
Assay [19] relates to OVCAR-8.
For assay [20], the system named is HOP-92.

Structures are written as SMILES.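 All cell lines were grown in 96-well plates and treated with compound for 48 hours. Here, GI50 denotes the concentration required for 50% inhibition of growth.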 Activity calls are given as the source filed them. Cut-off read from the data, not from the text of the source: active = GI50 up to about 1.1 µM and inactive = higher.

The term GI50 denotes the concentration that inhibits growth by half.

Take `N#CC(C#N)=CNC(=S)c1ccncc1`: the GI50 in assay [1] was > 100 µM (inactive); in [2], 35.4 µM (inactive); in assay [3], > 100 µM (inactive); in assay [4], 18.7 µM (inactive); in assay [5] it was > 100 µM (inactive); in assay [6], 34.8 µM (inactive). Also, the GI50 is 34.5 µM (inactive) in assay [7]; > 100 µM (inactive) in assay [8]; > 100 µM (inactive) in assay [9]; 41.6 µM (inactive) in assay [10]; > 100 µM (inactive) in assay [11]; 48.1 µM (inactive) in assay [12]. For the same compound, the GI50 in [13] is > 100 µM (inactive); in assay [14], 59.8 µM (inactive); in assay [15], 11.2 µM (inactive); in assay [16], > 100 µM (inactive); in [17], > 100 µM (inactive); in assay [18], 23.1 µM (inactive). Besides, the GI50 in [19] was > 100 µM (inactive).
As to `CO/C=C/C=C(\C#N)C(=O)OC`, the GI50 was > 100 µM (inactive) in assay [1]; 60.3 µM (inactive) in assay [2]; > 100 µM (inactive) in assay [4]; > 100 µM (inactive) in assay [5]; > 100 µM (inactive) in assay [6]; 26.3 µM (inactive) in [7]. Also, the GI50 in [8], in assay [9], in assay [10], in assay [11], in assay [20] and in assay [13] was > 100 µM (inactive) throughout. Further, the GI50 in [14], in assay [15], in assay [16], in assay [17], in [18] and in [19] was > 100 µM (inactive) each time.
Take `O=C1CSC(c2ccccc2O)N1c1ccc(Oc2ccc(Cl)cc2)c(Cl)c1` (configuration not stated): the GI50 in [1] was 21.6 µM (inactive); in assay [2], 17.6 µM (inactive); in assay [4] it was 14.3 µM (inactive); in assay [5] it was 11.7 µM (inactive); in assay [6] it was 28.2 µM (inactive); in assay [7], 17.6 µM (inactive). Also, the GI50 was 26.2 µM (inactive) in [8]; 19.5 µM (inactive) in assay [9]; 22 µM (inactive) in assay [10]; 18.8 µM (inactive) in assay [11]; 18.7 µM (inactive) in assay [20]; 16.6 µM (inactive) in [12]. The GI50 in [13] was 17.5 µM (inactive); in [14], 17.7 µM (inactive); in [15], 13.1 µM (inactive); in assay [16], 18.4 µM (inactive); in [17], 21.5 µM (inactive); in assay [18], 15.7 µM (inactive). In assay [19], the GI50 was 25.5 µM (inactive).
As for `COc1ccc(NC(=S)N/N=C(\C)c2nc3cccnc3[nH]2)cc1`, the GI50 in assay [1] was 6.11 µM (inactive); in assay [2] it was 12.5 µM (inactive); in assay [4], 3.86 µM (inactive); in [5], 3.26 µM (inactive); in assay [6], 4.29 µM (inactive); in assay [7], 2.45 µM (inactive). Also, the GI50 is 3.52 µM (inactive) in assay [8]; 6.46 µM (inactive) in [9]; 5.32 µM (inactive) in assay [10]; 4.99 µM (inactive) in assay [11]; 4.4 µM (inactive) in [20]; 2.69 µM (inactive) in [12]. Moreover, the GI50 is 5.47 µM (inactive) in [13]; 7.55 µM (inactive) in [14]; 4.57 µM (inactive) in assay [15]; 5.53 µM (inactive) in assay [16]; 6.62 µM (inactive) in assay [17]; 2.9 µM (inactive) in assay [18]. For the same compound, the GI50 in [19] is 3.19 µM (inactive).
Consider `CCc1nn(CN2CCN(C)CC2)c(=S)n1/N=C\c1ccc(-c2ccc([N+](=O)[O-])cc2)o1`, for which the GI50 in assay [1] was > 100 µM (inactive); in assay [3], 26.8 µM (inactive); in assay [4], 64.1 µM (inactive); in [5] it was 19.9 µM (inactive); in assay [6], 36.9 µM (inactive); in assay [7], 22.5 µM (inactive). The GI50 is 57.7 µM (inactive) in assay [8]; 33.7 µM (inactive) in [10]; 29.9 µM (inactive) in [11]; 30.4 µM (inactive) in assay [20]; > 100 µM (inactive) in assay [12]; > 100 µM (inactive) in assay [13]. Further, the GI50 in assay [14] was 48.5 µM (inactive); in assay [15] it was 37 µM (inactive); in assay [16] it was 36.2 µM (inactive); in [17] it was 66.1 µM (inactive); in assay [19] it was 35.5 µM (inactive).
With `CSC1(Cc2ccccn2)C(=O)Nc2cccc([N+](=O)[O-])c21` (configuration not stated), the GI50 in assay [1] is > 100 µM (inactive); in assay [2] it was > 100 µM (inactive); in [4], > 100 µM (inactive); in [5], 52.1 µM (inactive); in assay [6], > 100 µM (inactive); in assay [7], 48 µM (inactive). For the same compound, the GI50 in assay [8] is > 100 µM (inactive); in [9], 55.5 µM (inactive); in [10], > 100 µM (inactive); in assay [11], > 100 µM (inactive); in assay [20] it was > 100 µM (inactive); in assay [12], 42.3 µM (inactive). In addition, the GI50 in [13], in [14], in assay [15], in [16], in [17] and in assay [18] was > 100 µM (inactive) throughout. The GI50 in assay [19] was > 100 µM (inactive).
Take `c1ccc(CSP234N5CCN2CCN3CCN4CC5)c(CSP234N5CCN2CCN3CCN4CC5)c1`: the GI50 is > 100 µM (inactive) in [1]; 28.3 µM (inactive) in assay [2]; 30.8 µM (inactive) in assay [4]; > 100 µM (inactive) in assay [5]; > 100 µM (inactive) in [6]; 45.4 µM (inactive) in assay [7]. In addition, the GI50 in assay [8] is > 100 µM (inactive); in [9] it was > 100 µM (inactive); in assay [10] it was > 100 µM (inactive); in [11], > 100 µM (inactive); in assay [20] it was 46.2 µM (inactive); in assay [12], 3.65 µM (inactive). Also, the GI50 was > 100 µM (inactive) in assay [13]; > 100 µM (inactive) in assay [14]; > 100 µM (inactive) in assay [15]; > 100 µM (inactive) in assay [16]; > 100 µM (inactive) in [17]; 41.7 µM (inactive) in assay [18]. For the same compound, the GI50 in assay [19] is > 100 µM (inactive).
As for `Cc1ccc(C(=O)/C=C2\Nc3ccccc3SC2=O)c(C)c1`, the GI50 in assay [1] was > 100 µM (inactive); in assay [3] it was < 0.01 µM (active); in [4], 28.3 µM (inactive); in assay [5], 61.9 µM (inactive); in assay [6] it was 28.6 µM (inactive); in assay [7], 36.3 µM (inactive). In addition, the GI50 in assay [8] was 42 µM (inactive); in [9], 51.1 µM (inactive); in assay [10], 45.3 µM (inactive); in [11], 26.2 µM (inactive); in assay [20], 23.4 µM (inactive); in [12], 26.9 µM (inactive). Moreover, the GI50 is 46.8 µM (inactive) in assay [13]; 59.3 µM (inactive) in [14]; 6.9 µM (inactive) in [15]; 53.3 µM (inactive) in assay [16]; 56.2 µM (inactive) in assay [17]; 43 µM (inactive) in assay [18]. Also, the GI50 in assay [19] was 35.6 µM (inactive).
As for `COc1ccc(NC(=O)C2=C(SC)C(C#N)C(=O)N=C2N)cc1` (configuration not stated), the GI50 in assay [1] is > 100 µM (inactive); in [3], > 100 µM (inactive); in [4], > 100 µM (inactive); in [5], 49.4 µM (inactive); in assay [6], > 100 µM (inactive); in assay [7], 25.7 µM (inactive). For the same compound, the GI50 was > 100 µM (inactive) in [8]; > 100 µM (inactive) in assay [9]; > 100 µM (inactive) in [10]; 65.8 µM (inactive) in [11]; 14 µM (inactive) in assay [20]; 31.2 µM (inactive) in [12]. Besides, the concentration for 50% growth inhibition (GI50) is 0.369 µM (active) in assay [13]; > 100 µM (inactive) in assay [14]; > 100 µM (inactive) in [15]; > 100 µM (inactive) in assay [16]; > 100 µM (inactive) in assay [17]; > 100 µM (inactive) in [18].
Regarding `COc1ccc(-n2c(C)nc3ccc(NC4OC(CO)C(O)C(O)C4O)cc3c2=O)cc1` (configuration not stated), the GI50 in assay [1], in assay [2], in [3], in [4], in assay [5] and in assay [6] was > 100 µM (inactive) throughout. Further, the GI50 in [8], in [9], in assay [10], in [11], in assay [12] and in [13] was > 100 µM (inactive) each time. Moreover, the GI50 in assay [14], in assay [15], in assay [17] and in assay [19] was > 100 µM (inactive) in each case.
Turning to `CCOC(=O)C1CCC(=O)N1C(=O)c1ccccc1` (configuration not stated), the GI50 in [1], in assay [3], in [4], in assay [5], in [6] and in assay [7] was > 100 µM (inactive) throughout. In addition, the GI50 in assay [8], in assay [9], in assay [10], in assay [11], in assay [20] and in assay [12] was > 100 µM (inactive) throughout. Further, the GI50 in assay [13], in assay [14], in assay [15], in assay [16], in assay [17] and in assay [18] was > 100 µM (inactive) in each case. In assay [19], the GI50 is > 100 µM (inactive).
